Measured values: ChEMBL document CHEMBL3044672, “N9- and N7-(Chloromethyl Phenymethyl)Chloropurine Derivatives from , '-Dichloroxylenes: Synthesis and Anticancer Activity” (2005)

Columns and labels:
Assay type in all cases: functional
OVCAR-4 = experiment: Cytotoxicity against Homo sapiens (human) OVCAR4 cells after 48 hr by sulforhodamine B assay; settings: OVCAR-4, 48 h
IGROV-1 = experiment: Cytotoxicity against Homo sapiens (human) IGROV1 cells after 48 hr by sulforhodamine B assay; settings: IGROV-1, 48 h
OVCAR-3 = experiment: Cytotoxicity against Homo sapiens (human) OVCAR3 cells after 48 hr by sulforhodamine B assay; settings: OVCAR-3, 48 h
UACC-62 = experiment: Cytotoxicity against Homo sapiens (human) UACC62 cells after 48 hr by sulforhodamine B assay; settings: UACC-62, 48 h
UACC-257 = experiment: Cytotoxicity against Homo sapiens (human) UACC257 cells after 48 hr by sulforhodamine B assay; settings: UACC-257, 48 h
SK-MEL-5 = experiment: Cytotoxicity against Homo sapiens (human) SK-MEL-5 cells after 48 hr by sulforhodamine B assay; settings: SK-MEL-5, 48 h
SK-MEL-2 = experiment: Cytotoxicity against Homo sapiens (human) SK-MEL-2 cells after 48 hr by sulforhodamine B assay; settings: SK-MEL-2, 48 h
U-251 = experiment: Cytotoxicity against Homo sapiens (human) U251 cells after 48 hr by sulforhodamine B assay; settings: U-251, 48 h
SF-539 = experiment: Cytotoxicity against Homo sapiens (human) SF539 cells after 48 hr by sulforhodamine B assay; settings: SF-539, 48 h
MDA-MB-435 = experiment: Cytotoxicity against Homo sapiens (human) MDA-MB-435 cells after 48 hr by sulforhodamine B assay; settings: MDA-MB-435, 48 h
[1] = Cytotoxicity against Homo sapiens (human) NCI-ADR-RES cells after 48 hr by sulforhodamine B assay
MDA-MB-231 = experiment: Cytotoxicity against Homo sapiens (human) MDA-MB-231 cells after 48 hr by sulforhodamine B assay; settings: MDA-MB-231, 48 h
PC-3 = experiment: Cytotoxicity against Homo sapiens (human) PC3 cells after 48 hr by sulforhodamine B assay; settings: PC-3, 48 h
SN12C = experiment: Cytotoxicity against Homo sapiens (human) SN12C cells after 48 hr by sulforhodamine B assay
RXF 393 = experiment: Cytotoxicity against Homo sapiens (human) RXF393 cells after 48 hr by sulforhodamine B assay; settings: RXF 393, 48 h
CAKI-1 = experiment: Cytotoxicity against Homo sapiens (human) Caki1 cells after 48 hr by sulforhodamine B assay; settings: CAKI-1, 48 h
KM12 = experiment: Cytotoxicity against Homo sapiens (human) KM12 cells after 48 hr by sulforhodamine B assay; settings: KM12, 48 h
HT-29 = experiment: Cytotoxicity against Homo sapiens (human) HT-29 cells after 48 hr by sulforhodamine B assay; settings: HT-29, 48 h
HCT-116 = experiment: Cytotoxicity against Homo sapiens (human) HCT116 cells after 48 hr by sulforhodamine B assay; settings: HCT-116, 48 h
HCC 2998 = experiment: Cytotoxicity against Homo sapiens (human) HCC2998 cells after 48 hr by sulforhodamine B assay; settings: HCC 2998, 48 h
COLO 205 = experiment: Cytotoxicity against Homo sapiens (human) COLO205 cells after 48 hr by sulforhodamine B assay; settings: COLO 205, 48 h
NCI-H522 = experiment: Cytotoxicity against Homo sapiens (human) NCI-H522 cells after 48 hr by sulforhodamine B assay; settings: NCI-H522, 48 h
NCI-H322M = experiment: Cytotoxicity against Homo sapiens (human) NCI-H322M cells after 48 hr by sulforhodamine B assay
NCI-H23 = experiment: Cytotoxicity against Homo sapiens (human) NCI-H23 cells after 48 hr by sulforhodamine B assay; settings: NCI-H23, 48 h
NCI-H226 = experiment: Cytotoxicity against Homo sapiens (human) NCI-H226 cells after 48 hr by sulforhodamine B assay; settings: NCI-H226, 48 h
HOP-62 = experiment: Cytotoxicity against Homo sapiens (human) HOP62 cells after 48 hr by sulforhodamine B assay; settings: HOP-62, 48 h
EKVX = experiment: Cytotoxicity against Homo sapiens (human) EKVX cells after 48 hr by sulforhodamine B assay
A549 = experiment: Cytotoxicity against Homo sapiens (human) A549 cells after 48 hr by sulforhodamine B assay; settings: A549, 48 h
MOLT-4 = experiment: Cytotoxicity against Homo sapiens (human) MOLT4 cells after 48 hr by sulforhodamine B assay; settings: MOLT-4, 48 h
K562 = experiment: Cytotoxicity against Homo sapiens (human) K562 cells after 48 hr by sulforhodamine B assay; settings: K562, 48 h
SF-268 = experiment: Cytotoxicity against Homo sapiens (human) SF268 cells assessed as cell growth at 10^-4 M after 48 hr by […] assay; settings: SF-268, 48 h, read-out: Activity
[2] = read-out: LC50 (the source's name)

SMILES: ClCc1ccccc1Cn1cnc2nc(Cl)nc(Cl)c21
- GI50 (OVCAR-4): 2130 nM
- LC50 (concentration killing 50% of cells) (OVCAR-4): > 100 µM
- TGI (OVCAR-4): 5.12 µM
- GI50 (IGROV-1): 2880 nM
- LC50 (IGROV-1): 9.54 µM
- TGI (IGROV-1): 5.24 µM
- GI50 (OVCAR-3): 14.1 µM
- LC50 (OVCAR-3): 53.7 µM
- TGI (OVCAR-3): 27.5 µM
- GI50 (UACC-62): 1200 nM
- LC50 (concentration causing 50% net cell kill) (UACC-62): 6.76 µM
- TGI (UACC-62): 2810 nM
- GI50 (UACC-257): 1990 nM
- LC50 (concentration killing 50% of cells) (UACC-257): 8.7 µM
- TGI (UACC-257): 4.16 µM
- GI50 (SK-MEL-5): 740 nM
- LC50 (SK-MEL-5): 5.49 µM
- TGI (SK-MEL-5): 2180 nM
- GI50 (SK-MEL-2): 2750 nM
- LC50 (concentration killing 50% of cells) (SK-MEL-2): > 100 µM
- TGI (SK-MEL-2): 5.75 µM
- GI50 (U-251): 330 nM
- LC50 (concentration killing 50% of cells) (U-251): 3.63 µM
- TGI (U-251): 1170 nM
- GI50 (SF-539): 2130 nM
- LC50 (concentration killing 50% of cells) (SF-539): 8.31 µM
- TGI (SF-539): 4.26 µM
- GI50 (MDA-MB-435): 16.6 µM
- LC50 (MDA-MB-435): 58.9 µM
- TGI (MDA-MB-435): 30.9 µM
- GI50 [1]: 2340 nM
- LC50 (concentration killing 50% of cells) [1]: > 100 µM
- TGI [1]: 5.01 µM
- GI50 (MDA-MB-231): 300 nM
- LC50 (MDA-MB-231): 3.23 µM
- TGI (MDA-MB-231): 910 nM
- GI50 (PC-3): 750 nM
- TGI (PC-3): 2570 nM
- GI50 (SN12C): 1170 nM
- LC50 (50% lethal concentration) (SN12C): 5.62 µM
- TGI (SN12C): 2570 nM
- GI50 (RXF 393): 1 nM
- TGI (RXF 393): 1900 nM
- CC50 (RXF 393; [2]): 6.45 µM
- GI50 (CAKI-1): 19.5 µM
- TGI (CAKI-1): 34.7 µM
- CC50 (CAKI-1; [2]): 61.6 µM
- GI50 (KM12): 11.7 µM
- TGI (KM12): 25.7 µM
- CC50 (KM12; [2]): 56.2 µM
- GI50 (HT-29): 400 nM
- TGI (HT-29): > 100 µM
- CC50 (HT-29; [2]): > 100 µM
- GI50 (HCT-116): 1860 nM
- TGI (HCT-116): 4.07 µM
- GI50 (HCC 2998): 18.6 µM
- TGI (HCC 2998): 35.5 µM
- CC50 (HCC 2998; [2]): 66.1 µM
- GI50 (COLO 205): 350 nM
- TGI (COLO 205): > 100 µM
- CC50 (COLO 205; [2]): > 100 µM
- GI50 (NCI-H522): 2950 nM
- TGI (NCI-H522): 7.24 µM
- CC50 (NCI-H522; [2]): > 100 µM
- GI50 (NCI-H322M): 4.26 µM
- TGI (NCI-H322M): 14.5 µM
- CC50 (NCI-H322M; [2]): 39.8 µM
- GI50 (NCI-H23): 19.1 µM
- TGI (NCI-H23): 40.7 µM
- CC50 (NCI-H23; [2]): 87.1 µM
- GI50 (NCI-H226): 2130 nM
- TGI (NCI-H226): 6.76 µM
- CC50 (NCI-H226; [2]): 28.2 µM
- GI50 (HOP-62): 2690 nM
- TGI (HOP-62): 5.49 µM
- CC50 (HOP-62; [2]): 16.6 µM
- GI50 (EKVX): 1730 nM
- TGI (EKVX): 3.23 µM
- CC50 (EKVX; [2]): 6.02 µM
- GI50 (A549): 2810 nM
- TGI (A549): 5.75 µM
- CC50 (A549; [2]): > 100 µM
- GI50 (MOLT-4): 1340 nM
- TGI (MOLT-4): 3.23 µM
- CC50 (MOLT-4; [2]): 7.94 µM
- GI50 (K562): 250 nM
- TGI (K562): 690 nM
- CC50 (K562; [2]): > 100 µM
- growth at 100 µM (SF-268): 0%
